The conditions of series [1]: oral, steady state after 6 weeks of medication, patients on long-term medication; cited from earlier work.
Series [2] is described as follows: Bioavailability studies of levothyroxine sodium tablets of different strengths (pharmacokinetic parameters, dose linearity). It is filed as in vivo. Particulars: tablets of 50, 100, 150 and 200 µg made from one base formulation, oral. On the procedure: Die ermittelten pharmakokinetischen Parameter der in vivo geprüften 50, 100, 150 und 200 µg Levothyroxin-Natrium enthaltenden Tabletten sind in Tabelle 1 aufgeführt.

The nature of series [3]: In vitro release of Levothyroxin-Natrium from tablets, paddle apparatus. It is filed as physicochemical. Particulars: tablets of 50, 100, 150, 200 µg, 100 rpm, 500 ml phosphate buffer pH 7,4, data only in Fig. 1-4. From the text:
Die folgenden in vitro Untersuchungen der erfindungsgemäß hergestellten Tabletten belegen, dass der Wirkstoff Levothyroxin-Natrium aus den Tabletten der unterschiedlichen Dosierungen in gleicher Geschwindigkeit und […] Ausmaß freigesetzt und somit dem Körper zur Verfügung gestellt werden kann. Die Untersuchungen zur Freisetzung wurden mit den Tabletten gemäß den Beispielen 2 und 3 durchgeführt. In den Figuren 1 bis 4 ist die jeweilige Freisetzung dargestellt. An […] % angegeben, an […] Zeit aufgetragen. Die Balken geben den Vertrauensbereich des […] von Levothyroxin-Natrium aus Tabletten (50 μg), Tablettenmasse 52 mg, Paddle-Apparatur, 100 rpm, […]: 500 ml Phosphatpuffer pH 7,4; • Fig. 2: Freisetzung von Levothyroxin-Natrium aus Tabletten (100 μg), Tablettenmasse 104 mg, Paddle-Apparatur, 100 rpm, […]: 500 ml Phosphatpuffer pH 7, 4; • Fig. 3: Freisetzung von Levothyroxin-Natrium aus Tabletten (150 μg), Tablettenmasse 156 mg, Paddle-Apparatur, 100 rpm, […]: 500 ml Phosphatpuffer pH 7,4 und • Fig. 4: Freisetzung von Levothyroxin-Natrium aus Tabletten (200 μg), Tablettenmasse 208 mg, Paddle-Apparatur, 100 rpm, […]: 500 ml Phosphatpuffer pH 7,4.

Consider `N[C@@H](Cc1cc(I)c(Oc2cc(I)c(O)c(I)c2)c(I)c1)C(=O)O` [L-Thyroxin], for which, in series [1], the “Kinetik (L-Thyroxin-Serumkonzentration, AUC 0 x 24, Cmax, Ctrough)” value is “nicht-linearen Kinetik”. With `N[C@@H](Cc1cc(I)c(Oc2cc(I)c(O)c(I)c2)c(I)c1)C(=O)O` [Levothyroxin-Natrium], the Dosislinearität result in series [2] is listed as “klare Dosislinearität”. Moreover, in series [3], the “Freisetzung von Levothyroxin-Natrium aus Tabletten” value was “in gleicher Geschwindigkeit und gleichem Ausmaß freigesetzt”.

The record behind these values is patent EP1408948B1, “THYROID THERAPEUTIC AGENT COMPRISING PARTIAL GLYCERIDES AND DEXTRINE” (BERLIN-CHEMIE Aktiengesellschaft, priority 2001, dated 2003).
